# Experimental data: US20140127136A1, “LIPOSOMES USEFUL FOR DRUG DELIVERY TO THE BRAIN” (Merrimack Pharmaceuticals, Inc., priority 2004, published 2014)
# Several values for one entry are separate records, joined by “and”; a condition that tells them apart may be missing. Equal values may be shown once. Where a name gives a salt, the structure may show the parent alone. Read-outs that look alike come from different tables or passages of the source.
# Columns and labels:
# [1] = test system: HER2-overexpressing human breast carcinoma cells (BT-474); test: MTT cytotoxicity of 6-APE formulations; conditions: 6 hours exposure, 3 days post-incubation
# [2] = test system: MCF-7 human breast cancer cells with low EGFR expression; test: Cytotoxicity of free, liposomal and anti-EGFR-immunoliposomal 6-APE; format: cell-based; conditions: 6 hours exposure, 3 days post-incubation
# [3] = test system: MDA-MB-468 EGFR-overexpressing human breast cancer cells; test: as above; format: cell-based; conditions: 6 hours exposure, 3 days post-incubation
# [4] = cited from earlier work; for pKa: aqueous solution, ambient temperature, conjugated amine base, value (I) where two are given
# in vivo [5] = conditions: Sprague-Dawley, rat, brain, other: CED infusion into the brain, 0.06 mg
# [6] = test system: subcutaneous xenografts of human colon carcinoma (HT-29); test: Antitumor activity of free and liposomal CPT-11 against HT-29 xenografts; format: in vivo, NCR nu/nu athymic nude mice; conditions: 50 mg/kg per injection
# [7] = Pharmacokinetics of irinotecan formulations administered by CED into normal brain tissue; conditions: 3 mg/ml
# [8] = Toxicity of free and liposomal irinotecan following CED delivery into the brain; format: in vivo, rats; conditions: for brain tissue toxicity 60 days after CED: single 20 μl CED infusion
# Description: Ls-CPT-11 was prepared and the CED procedure used were described in Example 68. To evaluate toxicity, healthy rats received a single infusion of free, i.e., dissolved, or Ls-CPT-11 via CED. […] Rats were euthanized 60 days after CED treatments, and their brains were harvested, sectioned and stained for standard pathology xamination.
# No systemic toxicities, including weight loss or diarrhea, were observed following CED of any of the treatments. Furthermore, no gross neurologic or behavioral changes were noted post-treatment. Indeed, no dose-limiting toxicities for nanoliposomal CPT-11 were identified up to 1.6 mg/rat in a single 0.02 mL infusion, which represented the highest dose achieved without further concentrationg the liposomal sample.
# [9] = MTD seeking study of CPT-11 formulations, single i.v. injection; format: in vivo, Swiss Webster mice
# [10] = mouse, 0.1 mg/ml
# [11] = test system: human breast carcinoma BT-474 xenografts; test: Antitumor efficacy of CPT-11 liposomes (TEA-Pn) against breast cancer xenografts in nude mice; format: in vivo, NCR nu/nu mice; conditions: 50 mg CPT-11/kg i.v. on days 14, 18, 21, 25
# orthotopic U87 tumors = conditions: 60 μg (3 mg/ml), single CED 5 d after implantation
# [12] = test system: U87MG intracranial glioblastoma xenograft; test: Therapeutic efficacy of liposomal topotecan by CED against intracranial glioma xenografts; format: in vivo, athymic rats; conditions: CED 20 μl, 0.5 mg/ml, 7 days after tumor implantation
# Description: Twenty one athymic rats received the implantation of U87MG tumor cells (5×10^5 cells/10 μl HBSS) into their right striatum and were divided randomly into three groups. Under deep isofluorane anesthesia, rats were placed in a small-animal stereotaxic frame (David Kopf Instruments, Tujunga, Calif.). […] After 2 min, another 5 μl was injected at a depth of 4 mm. After an additional 2 min, the needle was removed and the wound was closed with sutures.
# All control rats and rats treated with free TPT developed neurological symptoms around day 17-26 due to large intracranial tumors that were confirmed by histology.
# To evaluate the treatment of larger tumors, the U87MG intracranial model was developed in 12 rats. However, in this experiment CED was performed 12 days after tumor implantation (FIG. 48B). […] Therefore, to achieve proper coverage of the tumor, there is the need for guided and image-monitored administration of the liposomal drug.
# [13] = Stability and plasma pharmacokinetics of liposomal and F5-immunoliposomal Topotecan in mice; format: in vivo, Swiss Webster mice; conditions: mouse plasma, 1 hour post i.v. injection, 5 mg/kg
# Description: Topotecan liposomes containing radioactive lipid label [^3H]-CHE at 1.5 mCi/mmol of phospholipid were prepared according to Examples 11 and 19 using an ethanol lipid solution mixing-extrusion procedure under the following conditions: gradient-forming salt solution: 0.643 N triethylammonium sucrose octasulfate; polycarbonate membrane extrusion: 15 passages through 2 stacked PCTE filters, 80 nm pore size; Topotecan loading: drug/phospholipid input ratio 350 mg/mmol (calculated for Topotecan free base); F5 scFv conjugation was performed as described in Example 19. The liposomes had the following characteristics:
# The study was performed generally as in Example 22. […] At 1 hour, 8 hour, or 24 hour post injection time points, 3 animals per time point were exsanguinated via open heart punction under Ketamine/Xylazine anesthesia, the blood was collected into tubes containing PBS-EDTA, and assayed for Topotecan (fluorometry) and liposome lipid (by radioactivity scintillation counting). […] The amount of drug remaining encapsulated in the liposomes at each time point was calculated for each animal individually by comparing drug/lipid radioactivity ratio of the plasma samples with that of the injected liposomes. […]
# in vivo [14] = conditions: Sprague-Dawley, rat, brain, other: CED infusion into the brain, 0.01 mg
# [15] = Brain tissue pharmacokinetics of free and liposomal topotecan delivered by CED
# [16] = Maximum tolerated dose of free and liposomal Topotecan, 3 weekly i.v. injections; conditions: female, Swiss-Webster, mouse, in vivo, iv
# [17] = Animal body weights in the BT-474 Topotecan MTD-fraction study; format: in vivo, nude mice; conditions: at MTD, i.v. at day 19, 23, 27
# Excerpt: The control group received injections of physiological saline. […] There was no significant difference in efficacy between free and liposomal drug given at their respective MTD or at identical fractions (½, ¼, or ⅛) thereof.
# SKBr-3 cells = test: MTT cytotoxicity of Topotecan formulations (TEA-Pn); format: cell-based; conditions: Homo sapiens, SK-BR-3, read-out: IC50 (drug dose resulting in 50% growth inhibition), 4-6 hours exposure, 4 days post-incubation
# [18] = test system: subcutaneous xenograft tumors of BT-474 human breast carcinoma; test: Antitumor efficacy of non-targeted and HER2-targeted liposomal vincristine; format: in vivo, nude mice; conditions: 2 mg VCR/kg weekly i.v. for three weeks
# [19] = test system: HER2-overexpressing human non-small cell lung carcinoma cells CaLu-3; conditions: MTT
# [20] = test system: HT-29 human colon carcinoma xenografts; conditions: 5 mg/kg i.v. every three days, four injections
# [21] = LD50 of triethylammonium sulfate compared with doxorubicin; conditions: in vivo
# [22] = inj. dose 60 mg/kg, single i.v., individual mice, hydrochloride, 60 mg/kg
# [23] = inj. dose 70 mg/kg, single i.v., individual mice, hydrochloride, 70 mg/kg
# [24] = inj. dose 80 mg/kg, single i.v., individual mice, hydrochloride, 80 mg/kg
# [25] = rat brain tissue, CED 20 μl, 0.5 mg/ml
compound,measurement,setting,value
6-(3-aminopropyl)ellipticine [free APE],IC50,[1],0.26 μg APE/ml
same,IC50,[2],about 0.5 μg/ml
same,IC50,[3],about 0.1 μg/ml
CC(C)(N)CO [2-amino-2-methylpropanol],pKa,[4],9.69
CC(C)N [Isopropylamine],pKa,[4],10.53
"CN1CCN(C)CC1 [N,N′-dimethylpiperazine]",pKa,[4],9.66
same,pKa (II),[4]; second ammonium group,5.2
OCCN1CCOCC1 [N-hydroxyethylmorpholine],pKa,[4],7.39
OCCN1CCCC1 [N-hyrdoxyethylpyrrolidine],pKa,[4],9.44
CN1CCCCC1 [N-methylpiperidine],pKa,[4],10.38
NC1CCCCC1 [cyclohexylamine],pKa,[4],10.66
C1CCC(NC2CCCCC2)CC1 [dicyclohexylamine],pKa,[4],10.4
CCN(C)CC [diethylmethylamine],pKa,[4],10.35
CCCN(C)C [dimethylpropylamine],pKa,[4],10.15
"CCc1c2c(nc3ccc(OC(=O)N4CCC(N5CCCCC5)CC4)cc13)-c1cc3c(c(=O)n1C2)COC(=O)[C@]3(O)CC [free CPT-11, Irinotecan hydrochloride]",MRT,in vivo [5],9.6 h
same,animals tumor-free at the end of study without signs of regrowth,[6],no animals without tumor regrowth
same,effect on the tumor growth,[6],only minor effect on the tumor growth
same,Average tumor doubling time,[6]; 4 i.v. injections at intervals of 4 days,4.8 days
same,AUC∞,[7],16.4 µg·days/g
same,brain tissue toxicity 60 days after CED,[8]; 60 μg,no apparent tissue toxicity
same,brain tissue toxicity 60 days after CED,[8]; 0.4 mg/rat,extensive tissue necrosis within the CNS
same,highest tolerable dose,[8]; CED into rat brain,60 μg/infusion
same,MTD at 7 days,"[9]; Swiss Webster, mouse, in vivo, iv, acute, single i.v. injection, mice",80 mg/kg
same,Animal body weight at day 1 post injection,[9]; [22],20.4 g and 19.1 g and 20.0 g and 18.7 g
same,Animal body weight at day 2 post injection,[9]; [22],20.9 g and 19.4 g
same,Animal body weight at day 4 post injection,[9]; [22],22.1 g and 20.2 g
same,Animal body weight at day 6 post injection,[9]; [22],22.2 g and 20.4 g
same,Animal body weight at day 11 post injection,[9]; [22],22.5 g and 21.1 g
same,Animal body weight at day 1 post injection,[9]; [23],20.0 g and 21.8 g
same,Animal body weight at day 2 post injection,[9]; [23],20.6 g and 22.4 g
same,Animal body weight at day 1 post injection,[9]; [24],19.9 g and 20.8 g
same,Animal body weight at day 2 post injection,[9]; [24],20.1 g and 21.1 g
same,Animal body weight at day 3 post injection,[9]; [24],19.3 g and 20.6 g (2×) and 21.4 g and 21.9 g
same,outcome after injection,"[9]; inj. dose 90 mg/kg, single i.v., individual mice",died 1-2 min after injection
same,outcome after injection,"[9]; inj. dose 100 mg/kg, single i.v., individual mice",died 1-2 min after injection
same,"CPT-11, % carboxylate",[10]; 2 h,35.2 ± 1.9%
same,"CPT-11, % lactone",[10]; 2 h,1.9 ± 0.4%
same,"SN-38, % carboxylate",[10]; 2 h,58.4 ± 2.1%
same,"SN-38, % lactone",[10]; 2 h,4.4 ± 0.1%
same,"CPT-11, % carboxylate",[10]; 12 h,11.5 ± 0.9%
same,"CPT-11, % lactone",[10]; 12 h,<0.1%
same,"SN-38, % carboxylate",[10]; 12 h,78.6 ± 1.3%
same,"SN-38, % lactone",[10]; 12 h,9.9 ± 0.8%
same,"CPT-11, % carboxylate",[10]; 24 h,<0.1%
same,"CPT-11, % lactone",[10]; 24 h,<0.1%
same,"SN-38, % carboxylate",[10]; 24 h,77.5 ± 9.8%
same,average tumor size at day 46,[11],"about 1,000 mm^3"
same,effect on tumor growth,[11],reduced the rate of tumor growth
same,"weight loss during treatment, % of pre-treatment value",50 mg/kg per injection (free: permanent; liposomal: transient),about 6%
same,condition after drug injection,"50 mg/kg, for about one hour after injection",temporary morbidity
same,Median survival,orthotopic U87 tumors,28.5 days
"CC[C@@]1(O)C(=O)OCc2c1cc1n(c2=O)Cc2cc3c(CN(C)C)c(O)ccc3nc2-1 [free Topotecan, Topotecan Hydrochloride]",survival / anti-tumor effect,[12],no survival benefits
same,"Drug, % of injected dose",[13],less than 1%
same,MRT,in vivo [14],2.4 h
same,half-life,in vivo [14],144 min
same,AUC∞,[15]; [25],2.8 µg·days/g
same,CL,[15]; [25],3.6 g/day
same,persistence in brain tissue post CED (detected as long as / completely cleared within),"[15]; rat brain, CED",≤ 1 days
same,MTD at 3 once-a-week injections,[16],18.4 mg/kg
same,MTD at 10 days,[16],11.7 to 21 mg/kg
same,"transient decrease in body weight, % of the pre-treatment value",[17],about 15%
same,IC50,SKBr-3 cells,> 30 µg/mL
"CC[C@]1(O)C[C@H]2CN(CCc3c([nH]c4ccccc34)[C@@](C(=O)OC)(c3cc4c(cc3OC)N(C=O)[C@H]3[C@@](O)(C(=O)OC)[C@H](OC(C)=O)[C@]5(CC)C=CCN6CC[C@]43[C@@H]65)C2)C1 [free VCR, vincristine sulfate]",comparative efficacy,[18],less effective than either F5-ILs-VCR or Ls-VCR-Cit
"CCC1=C[C@@H]2CN(C1)Cc1c([nH]c3ccccc13)[C@@](C(=O)OC)(c1cc3c(cc1OC)N(C)[C@H]1[C@@](O)(C(=O)OC)[C@H](OC(C)=O)[C@]4(CC)C=CCN5CC[C@]31[C@@H]54)C2.O=C(O)C(O)C(O)C(=O)O.O=C(O)C(O)C(O)C(=O)O [free VRB, vinorelbine bitartrate]",IC50,[19],1.2 µg/mL
same,effect on tumor growth,[20],the tumors always continued to grow
c1c[nH]cn1 [imidazole],pKa,[4],7.03
CC(C)(C)N [tert-butylamine],pKa,[4],10.68
triethylammonium sulfate,LD50 relative to the LD50 of doxorubicin,[21],about 40 times
